The assay has as its system nude mice, HT29 intrarenal xenograft, tumor weight T/C. The assay can be described thus: NCI In Vivo Anticancer Drug Screen. Data for tumor model HT29;CX-1 Human Adenocarcinoma (MER+) (intrarenal inoculation) in NU/NU Swiss (nude) mice. As to conditions: endpoint: mean tumor weight change, higher = larger tumour. Summed up:
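Tumor-bearing mice received test compound or vehicle, and tumor size or survival was recorded. Values are the treated-group measurement divided by the vehicle-treated control measurement.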

Setting [1] is: dose: 50.0 mg/kg/injection, schedule: Q01DX010 (sc), vehicle: saline.
[2] abbreviates: dose: 100.0 mg/kg/injection, schedule: Q01DX010 (sc), vehicle: saline.
The mark [3] stands for this setting: dose: 10.0 mg/kg/injection, schedule: Q04DX004 (sc), vehicle: Klucel (hydroxypropylcellulose) (HPC).
Where [4] appears, read: dose: 50.0 mg/kg/injection, schedule: Q01DX010 (sc), vehicle: saline with Tween-80.
Setting [5] is: dose: 400.0 mg/kg/injection, schedule: Q01DX010 (sc), vehicle: saline with Tween-80.
Setting [6] is: dose: 50.0 mg/kg/injection, schedule: Q04DX004 (sc), vehicle: saline.
Setting [7] is: dose: 100.0 mg/kg/injection, schedule: Q04DX004 (sc), vehicle: saline.
[8] abbreviates: dose: 400.0 mg/kg/injection, schedule: Q04DX004 (sc), vehicle: saline.
Setting [9] is: dose: 100.0 mg/kg/injection, schedule: Q01DX010 (sc), vehicle: saline with Tween-80.
[10] abbreviates: dose: 150.0 mg/kg/injection, schedule: Q04DX004 (sc), vehicle: saline with Tween-80.
[11] abbreviates: dose: 300.0 mg/kg/injection, schedule: Q04DX004 (sc), vehicle: saline with Tween-80.
The mark [12] stands for this setting: dose: 5.0 mg/kg/injection, schedule: Q04DX004 (sc), vehicle: Klucel (hydroxypropylcellulose) (HPC).
[13] abbreviates: dose: 150.0 mg/kg/injection, schedule: Q04DX004 (sc), vehicle: Klucel (hydroxypropylcellulose) (HPC).
Where [14] appears, read: dose: 300.0 mg/kg/injection, schedule: Q04DX004 (sc), vehicle: Klucel (hydroxypropylcellulose) (HPC).
Setting [15] is: dose: 600.0 mg/kg/injection, schedule: Q04DX004 (sc), vehicle: Klucel (hydroxypropylcellulose) (HPC).
[16] abbreviates: dose: 1200.0 mg/kg/injection, schedule: Q04DX004 (sc), vehicle: Klucel (hydroxypropylcellulose) (HPC).

Values joined by “and” are separate entries in the source; they are usually repeats but may differ in a detail not shown here. Equal entries are not always repeated. Results filed as inconclusive are left out.

Consider `Cc1c2ccc3ccccc3c2c[n+]2ccccc12`, for which the T/C by setting is: (dose: 3.75 mg/kg/injection, schedule: Q04DX004 (sc), vehicle: Klucel (hydroxypropylcellulose) (HPC)) 84 % of control; (dose: 7.5 mg/kg/injection, schedule: Q04DX004 (sc), vehicle: Klucel (hydroxypropylcellulose) (HPC)) 66 % of control; (dose: 15.0 mg/kg/injection, schedule: Q04DX004 (sc), vehicle: Klucel (hydroxypropylcellulose) (HPC)) 50 % of control; (dose: 30.0 mg/kg/injection, schedule: Q04DX004 (sc), vehicle: Klucel (hydroxypropylcellulose) (HPC)) 41 % of control.
For the compound `OCC1OC(n2cnc3c(=S)nc[nH]c32)C(O)C1O` (stereo unspecified), the T/C (dose: 25.0 mg/kg/injection, schedule: Q01DX010 (sc), vehicle: saline) was 54 % of control; the T/C under setting [1] is 77 % of control; the T/C under setting [2] is 108 % of control.
As for `CC1CN1C(=O)NCCCCCCNC(=O)N1CC1C` (stereo unspecified), the T/C reads like this: under setting [3], 36 % of control; (dose: 40.0 mg/kg/injection, schedule: Q04DX004 (sc), vehicle: Klucel (hydroxypropylcellulose) (HPC)) 16 % of control.
`c1ccc2sc(SSN3CC4CCC(CC4)C3)nc2c1`: the T/C by setting is: under setting [4], 120 % of control; under setting [5], 96 % of control.
Regarding `CC(=O)C(O)N1C(=O)C=CC1=O` (stereo unspecified), the T/C is, setting by setting: (dose: 2.5 mg/kg/injection, schedule: Q01DX010 (sc), vehicle: saline) 123 % of control; (dose: 5.0 mg/kg/injection, schedule: Q01DX010 (sc), vehicle: saline) 107 % of control; (dose: 10.0 mg/kg/injection, schedule: Q01DX010 (sc), vehicle: saline) 52 % of control; (dose: 20.0 mg/kg/injection, schedule: Q01DX010 (sc), vehicle: saline) 30 % of control.
Take `CCC(C(=O)O)C(=O)O.[NH-]CC1CCCC[N-]1.[Pt+2]`: the T/C under setting [6] is 113 % of control; the T/C under setting [7] was 96 % of control; the T/C (dose: 200.0 mg/kg/injection, schedule: Q04DX004 (sc), vehicle: saline) is 79 % of control; the T/C under setting [8] is 59 % of control.
Regarding `Clc1ccc(CN2COc3c(ccc4cccnc34)C2)cc1Cl`, the T/C by setting is: under setting [9], 73 % of control; under setting [5], 60 % of control and 72 % of control.
Turning to `O=C1C(NCC(O)CO)=C(N2CC2)C(=O)C(NCC(O)CO)=C1N1CC1` (stereo unspecified), the T/C is 86 % of control (dose: 4.0 mg/kg/injection, schedule: Q04DX004 (sc), vehicle: saline); 28 % of control (dose: 8.0 mg/kg/injection, schedule: Q04DX004 (sc), vehicle: saline); 25 % of control (dose: 16.0 mg/kg/injection, schedule: Q04DX004 (sc), vehicle: saline).
For the compound `CC/C(=C(/CC)c1ccc(O)cc1)c1ccc(O)cc1`, the T/C is 70 % of control under setting [10] and 69 % of control under setting [11].
Consider `CCCCCC[C@H]([C@H](C)O)n1cnc2c(N)ncnc21`, for which the T/C is, setting by setting: under setting [1], 26 % of control; under setting [2], 61 % of control; (dose: 200.0 mg/kg/injection, schedule: Q01DX010 (sc), vehicle: saline) 56 % of control.
For `NC(Cc1ccc(N(CCCl)CCCl)cc1)C(=O)O` (stereo unspecified), the T/C is, setting by setting: under setting [12], 70 % of control; under setting [3], 36 % of control and 53 % of control; (dose: 20.0 mg/kg/injection, schedule: Q04DX004 (sc), vehicle: Klucel (hydroxypropylcellulose) (HPC)) -16 % of control.
Regarding `O=C1C=C2C(=CCOC2O)O1` (stereo unspecified), the T/C is, setting by setting: (dose: 2.0 mg/kg/injection, schedule: Q04DX004 (sc), vehicle: Klucel (hydroxypropylcellulose) (HPC)) 53 % of control; (dose: 4.0 mg/kg/injection, schedule: Q04DX004 (sc), vehicle: Klucel (hydroxypropylcellulose) (HPC)) 87 % of control.
Consider `CCCCCC#CC1OC12CCCCC2` (stereo unspecified), for which the T/C reads like this: under setting [10], 74 % of control; under setting [11], 62 % of control; (dose: 600.0 mg/kg/injection, schedule: Q04DX004 (sc), vehicle: saline with Tween-80) 77 % of control; (dose: 1200.0 mg/kg/injection, schedule: Q04DX004 (sc), vehicle: saline with Tween-80) 100 % of control.
For `N#CCCSC(=S)C1CCCC1=N` (stereo unspecified), the T/C reads like this: (dose: 225.0 mg/kg/injection, schedule: Q04DX004 (sc), vehicle: saline with Tween-80) 104 % of control; (dose: 450.0 mg/kg/injection, schedule: Q04DX004 (sc), vehicle: saline with Tween-80) 106 % of control; (dose: 900.0 mg/kg/injection, schedule: Q04DX004 (sc), vehicle: saline with Tween-80) 114 % of control; (dose: 1800.0 mg/kg/injection, schedule: Q04DX004 (sc), vehicle: saline with Tween-80) 103 % of control.
For the compound `Cc1cc(N(CC(C)Br)CC(C)Br)ccc1N=Nc1ccccc1C(=O)O` (stereo unspecified), the T/C (dose: 3.13 mg/kg/injection, schedule: Q01DX010 (sc), vehicle: saline with Tween-80) was 69 % of control; the T/C (dose: 6.25 mg/kg/injection, schedule: Q01DX010 (sc), vehicle: saline with Tween-80) was 18 % of control; the T/C (dose: 12.5 mg/kg/injection, schedule: Q01DX010 (sc), vehicle: saline with Tween-80) was 14 % of control.
As for `c1cnc2ncncc2n1`, the T/C was 62 % of control (dose: 25.0 mg/kg/injection, schedule: Q01DX010 (sc), vehicle: saline with Tween-80); 70 % of control under setting [4]; 28 % of control under setting [9].
On to `OCC1OC(n2cnc3c(NO)ncnc32)C(O)C1O` (stereo unspecified), for which the T/C is, setting by setting: under setting [13], 47 % of control; under setting [14], 46 % of control; under setting [15], 52 % of control; under setting [16], 28 % of control.
Consider `CCN=C=NCCCN(C)C`, for which the T/C runs as follows: (dose: 25.0 mg/kg/injection, schedule: Q04DX004 (sc), vehicle: saline) 90 % of control; under setting [6], 78 % of control; under setting [7], 38 % of control.
As to `Cc1cc(N2C(=O)CCSC2=S)ccc1Cl`, the T/C reads like this: (dose: 75.0 mg/kg/injection, schedule: Q04DX004 (sc), vehicle: Klucel (hydroxypropylcellulose) (HPC)) 37 % of control; under setting [13], 55 % of control; under setting [14], 30 % of control.
Regarding `COc1ccc2ccccc2c1C1NC(=O)c2ccccc2N1` (stereo unspecified), the T/C was 114 % of control under setting [13], 115 % of control under setting [14], 207 % of control under setting [15] and 201 % of control under setting [16].
For `C[C@H](CCC[C@H](C)OS(=O)(=O)c1ccccc1)OS(=O)(=O)c1ccccc1`, the T/C was 49 % of control (dose: 75.0 mg/kg/injection, schedule: Q04DX004 (sc), vehicle: saline with Tween-80) and 35 % of control under setting [10].
As to `NNC(=S)N/N=C/c1ccccn1`, the T/C is, setting by setting: (dose: 15.0 mg/kg/injection, schedule: Q04DX004 (sc), vehicle: saline with Tween-80) 100 % of control; (dose: 30.0 mg/kg/injection, schedule: Q04DX004 (sc), vehicle: saline with Tween-80) 76 % of control; (dose: 60.0 mg/kg/injection, schedule: Q04DX004 (sc), vehicle: saline with Tween-80) 86 % of control.
Regarding `OC(C1CO1)C(O)C1CO1` (stereo unspecified), the T/C is 113 % of control (dose: 0.5 mg/kg/injection, schedule: Q01DX010 (sc), vehicle: saline) and 52 % of control (dose: 1.0 mg/kg/injection, schedule: Q01DX010 (sc), vehicle: saline).
For `Cc1cn(C2CC(O)C(CO)O2)c(=O)[nH]c1=O` (stereo unspecified), the T/C by setting is: under setting [8], 113 % of control; (dose: 800.0 mg/kg/injection, schedule: Q04DX004 (sc), vehicle: saline) 94 % of control; (dose: 1600.0 mg/kg/injection, schedule: Q04DX004 (sc), vehicle: saline) 102 % of control; (dose: 3200.0 mg/kg/injection, schedule: Q04DX004 (sc), vehicle: saline) 81 % of control.
In the case of `C[C@@]12C(=O)OC(=O)[C@]1(C)[C@H]1CC[C@@H]2O1`, the T/C was 87 % of control (dose: 1.25 mg/kg/injection, schedule: Q04DX004 (sc), vehicle: Klucel (hydroxypropylcellulose) (HPC)); 75 % of control (dose: 2.5 mg/kg/injection, schedule: Q04DX004 (sc), vehicle: Klucel (hydroxypropylcellulose) (HPC)); 89 % of control under setting [12].

The values above are taken from PubChem BioAssay AID206 (DTP/NCI, 2004).
